Experiment: Absorption test by oral administration: concentration in whole blood
Format: in vivo
Settings: cynomolgus monkey, cynomolgus monkeys (six), oral 0.32 mg/kg, aqueous suspension of Prescription 7 diluted to 0.064 mg/ml, average ± standard error, read-out: Conc. in whole blood
Experimental: The aqueous suspension obtained in Prescription 7 was used.
The oral agent mentioned above was diluted with purified water to have the concentration of FK 506 substance of 0.064 mg/ml. The resultant was orally administered to six cynomolgus monkeys (0.32 mg/kg).
The concentration of FK 506 substance in whole blood was measured 0.5, 1, 2, 4 and 6 hours after the administration in accordance with the aforesaid enzyme immunoassay.
The test results are represented by the average ± standard error.

## C=CCC1C=C(C)CC(C)CC(OC)C2OC(O)(C(=O)C(=O)N3CCCCC3C(=O)OC(C(C)=CC3CCC(O)C(OC)C3)C(C)C(O)CC1=O)C(C)CC2OC (centres unmarked) [FK 506 substance, 17-allyl-1,14-dihydroxy-12-[2-(4-hydroxy-3-methoxycyclohexyl)-1-methylvinyl]-23,25-dimethoxy-13,19,21,27-tetramethyl-11,28-dioxa-4-azatricyclo-[22.3.1.0^4,9]octacos-18-ene-2,3,10,16-tetraone]
0.5 hours
  concentration at 0.5 h: 13.4 ± 9.88 ng/mL
1 hour
  concentration at 1 h: 18.6 ± 9.36 ng/mL
2 hours
  concentration at 2 h: 18.6 ± 9.89 ng/mL
4 hours
  concentration at 4 h: 15.3 ± 7.77 ng/mL
6 hours
  concentration at 6 h: 12.4 ± 9.33 ng/mL

— patent US5496564A, “Suspendible composition and process for preparing the same” (Fujisawa Pharmaceutical Co., Ltd., priority 1990, dated 1996)
